This is an account of results in ChEMBL document CHEMBL2029309, “Proposed Bioactive Conformations of Opiorphin, an Endogenous Dual APN/NEP Inhibitor” (ACS Med Chem Lett, 2012).

Assay [1] deals with T1, Aminopeptidase N (Homo sapiens, UniProt P15144). Kind of assay: Inhibition of human aminopeptidase N.
The target of assay [2] is T2, Neprilysin (Homo sapiens, UniProt P08473). Kind of assay: Inhibition of human neprilysin.
Assay [3] addresses T2, Neprilysin. The assay can be described thus: Inhibition of human recombinant neprilysin using Abz-dR-G-L-EDDnp as substrate incubated for 10 mins prior to substrate addition measured for 40 mins by fluorometry.
Assay [4] deals with T1, Aminopeptidase N. Kind of assay: Inhibition of human recombinant aminopeptidase N using Ala-Mca as substrate incubated for 10 mins prior to substrate addition measured for 40 mins by fluorometry.

Peptide text beside a SMILES is read from it.

T1 sequence (P15144 whole entry): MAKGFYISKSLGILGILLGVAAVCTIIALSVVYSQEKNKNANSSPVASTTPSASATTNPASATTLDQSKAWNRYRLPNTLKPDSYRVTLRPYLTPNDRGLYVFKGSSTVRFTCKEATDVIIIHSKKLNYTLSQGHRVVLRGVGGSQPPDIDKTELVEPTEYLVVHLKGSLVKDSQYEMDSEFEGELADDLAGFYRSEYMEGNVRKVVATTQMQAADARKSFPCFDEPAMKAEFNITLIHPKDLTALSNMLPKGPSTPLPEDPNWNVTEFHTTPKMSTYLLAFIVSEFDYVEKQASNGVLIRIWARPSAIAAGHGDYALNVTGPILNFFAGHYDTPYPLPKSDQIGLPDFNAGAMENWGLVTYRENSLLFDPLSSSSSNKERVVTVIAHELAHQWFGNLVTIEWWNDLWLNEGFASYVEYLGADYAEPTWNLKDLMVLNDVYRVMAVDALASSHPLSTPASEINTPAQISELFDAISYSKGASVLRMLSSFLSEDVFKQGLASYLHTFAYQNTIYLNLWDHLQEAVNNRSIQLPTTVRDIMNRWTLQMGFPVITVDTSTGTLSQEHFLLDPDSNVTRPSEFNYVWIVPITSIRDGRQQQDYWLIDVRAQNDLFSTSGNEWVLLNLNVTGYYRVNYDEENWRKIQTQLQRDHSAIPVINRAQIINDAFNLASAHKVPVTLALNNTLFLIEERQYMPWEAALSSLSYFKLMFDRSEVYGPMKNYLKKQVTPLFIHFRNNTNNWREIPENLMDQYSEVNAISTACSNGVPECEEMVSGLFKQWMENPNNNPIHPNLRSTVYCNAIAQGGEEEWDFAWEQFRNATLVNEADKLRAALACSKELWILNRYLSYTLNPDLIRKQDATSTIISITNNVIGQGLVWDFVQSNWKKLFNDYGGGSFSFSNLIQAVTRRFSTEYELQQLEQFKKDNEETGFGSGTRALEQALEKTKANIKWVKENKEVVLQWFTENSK
T2 sequence (P08473 whole entry): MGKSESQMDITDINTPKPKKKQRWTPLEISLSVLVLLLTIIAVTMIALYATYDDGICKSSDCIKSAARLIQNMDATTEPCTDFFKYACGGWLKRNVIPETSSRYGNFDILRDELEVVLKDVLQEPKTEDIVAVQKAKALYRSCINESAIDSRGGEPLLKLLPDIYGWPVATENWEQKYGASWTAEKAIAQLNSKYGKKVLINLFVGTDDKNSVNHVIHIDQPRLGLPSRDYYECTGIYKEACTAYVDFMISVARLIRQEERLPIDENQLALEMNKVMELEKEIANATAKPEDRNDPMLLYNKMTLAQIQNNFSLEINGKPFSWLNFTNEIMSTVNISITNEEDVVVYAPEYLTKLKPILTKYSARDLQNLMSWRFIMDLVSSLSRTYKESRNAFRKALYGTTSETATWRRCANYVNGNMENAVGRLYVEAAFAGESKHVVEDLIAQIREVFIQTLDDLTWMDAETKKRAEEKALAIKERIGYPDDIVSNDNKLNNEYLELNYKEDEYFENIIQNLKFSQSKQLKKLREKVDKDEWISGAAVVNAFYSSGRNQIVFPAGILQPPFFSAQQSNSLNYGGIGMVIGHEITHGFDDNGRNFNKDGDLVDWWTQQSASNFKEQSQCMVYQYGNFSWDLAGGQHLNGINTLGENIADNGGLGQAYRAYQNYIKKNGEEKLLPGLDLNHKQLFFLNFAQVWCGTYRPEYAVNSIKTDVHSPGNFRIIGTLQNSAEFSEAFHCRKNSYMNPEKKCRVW

Regarding `NC(N)=NCCC[C@H](NC(=O)[C@H](CO)NC(=O)[C@@H](N)Cc1ccccc1)C(=O)O` [OPIORPHIN (3-5)] (H-Phe-Ser-Arg-OH), the IC50 is 120 µM on Aminopeptidase N [1] and 7 µM on Neprilysin [2]. H-QRFTR-OH: the IC50 on Neprilysin [3] and on Aminopeptidase N [4] was over 100 µM each time. In the case of H-FQRFSR-OH, the 50% inhibitory concentration (IC50) is 51 µM on Neprilysin [3] and 122 µM at Aminopeptidase N [4]. Consider `N=C(N)NCCC[C@H](NC(=O)[C@H](CO)NC(=O)[C@H](Cc1ccccc1)NC(=O)[C@@H](N)CCCNC(=N)N)C(=O)O` [OPIORPHIN (2-5)] (H-RFSR-OH), for which, at Neprilysin [2], the IC50 was 180 µM. Consider `N=C(N)NCCC[C@H](NC(=O)[C@@H](N)CCC(N)=O)C(=O)N[C@@H](Cc1ccccc1)C(=O)N[C@@H](CO)C(=O)O` [OPIORPHIN (1-4)] (H-QRFS-OH), for which the IC50 against Neprilysin [2] is over 100 µM. H-NRFSR-OH: the concentration for half-maximal inhibition (IC50) was 130 µM on Neprilysin [3] and over 100 µM on Aminopeptidase N [4].
